Measurements: PMC5552880, “The Bitter Taste Receptor TAS2R16 Achieves High Specificity and Accommodates Diverse Glycoside Ligands by using a Two-faced Binding Pocket” (Scientific Reports, 2017)
Residue numbers refer to the chain shown, from its start. Entries after “also recorded” stand apart in the source; their conditions may differ. Like-named read-outs stand apart in the source and are kept apart here. One block for each compound: values may come before it.

Key:
[1] = target: T1, wild-type TAS2R16 (Homo sapiens, UniProt Q9NYV7); test: Ca2+ flux assay, HEK-293T cells expressing wild-type TAS2R16 and Gα16gust44; assay type: cell-based; conditions: for activation of TAS2R16 (agonist screen): compounds screened at 10 mM, wild-type TAS2R16, Fig. 2a
T1 construct: FLAG (N); expressed in transfected cells; host or cells: HEK-293T
T1 sequence (Q9NYV7 1-291): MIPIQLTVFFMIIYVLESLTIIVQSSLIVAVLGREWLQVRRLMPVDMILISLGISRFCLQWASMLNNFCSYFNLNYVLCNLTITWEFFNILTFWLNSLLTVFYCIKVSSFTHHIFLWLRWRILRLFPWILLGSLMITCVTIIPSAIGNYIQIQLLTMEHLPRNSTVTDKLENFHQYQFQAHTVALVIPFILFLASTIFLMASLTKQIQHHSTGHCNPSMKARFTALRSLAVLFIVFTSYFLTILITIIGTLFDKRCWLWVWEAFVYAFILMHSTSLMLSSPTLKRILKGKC
Protocol: (§1) The TAS2R16 mutation library was tested for function using a Ca^2+ flux assay as described previously. Later screens of individual TAS2R16 mutant clones used 4-nitrophenyl-β-D-glucopyranoside. Briefly, HEK-293T cells, in poly-lysine coated, black 384-well plates with clear bottoms (Costar), were transfected with the TAS2R16 mutation library, and a plasmid expressing a Gα16 chimera containing the last 44 amino acids of rat gustducin (Gα16gust44). Cells were incubated for 22 hours at 37 °C then washed twice with a calcium indicator dye in HBSS containing 20 mM HEPES (Calcium 4 Assay kit, Molecular Devices), incubated with HBSS for 1.5 hr, then moved to a Flexstation II-384 (Molecular Devices) set at 32 °C. […] Concentrations for mutation library screening were chosen to be approximately 2 to 3 times higher than the EC50 values for the ligands to maximize the sensitivity of detecting decreases in signaling due to the mutation in each clone.
(§2) For Ca^2+ flux assays, the value of fluorescence at 30 seconds after ligand addition (the time of peak signal for wild-type TAS2R16) was used as the maximum value. […] Raw data obtained from surface expression and flux experiments were normalized to the values for wild-type TAS2R16 on each plate. Data sets were analyzed and represented as percentage over baseline signal. Mean and standard deviation values were calculated for each clone from replicate assay data.
(§3) Ligand dose-response data was analyzed with Graphpad Prism 5 software. Data was baseline subtracted and then fit using a sigmoidal dose-response (variable slope) equation.

[2] = target: T2, W261A TAS2R16 (Homo sapiens, UniProt Q9NYV7, W261A); test: Ca2+ flux assay, W261A TAS2R16 variant; assay type: cell-based; conditions: for activation of W261A variant: W261A TAS2R16, relative to wild-type; for decrease in EC50 with W261 mutation compared to WT: W261 to alanine or glycine vs WT
T2 construct: FLAG (N); expressed in transfected cells; host or cells: HEK-293T
T2 sequence (Q9NYV7 1-291 W261A): T1 sequence (Q9NYV7 1-291) with W261A
Protocol: as §1, §2, §3

[3] = target: T3, N96T TAS2R16 (Homo sapiens, UniProt Q9NYV7, N96T); test: Ca2+ flux assay, N96T TAS2R16 variant; assay type: cell-based; conditions: Fig. 7 dose-response
T3 construct: FLAG (N); expressed in transfected cells; host or cells: HEK-293T
Protocol: as §1
(§4) For Ca^2+ flux assays, the value of fluorescence at 30 seconds after ligand addition (the time of peak signal for wild-type TAS2R16) was used as the maximum value. […] Data sets were analyzed and represented as percentage over baseline signal. Mean and standard deviation values were calculated for each clone from replicate assay data.
(§5) Ligand dose-response data was analyzed with Graphpad Prism 5 software. […]

[4] = target: T4, N96A TAS2R16 (Homo sapiens, UniProt Q9NYV7, N96A); test: Ca2+ flux assay, N96A TAS2R16 variant; assay type: cell-based; conditions: Fig. 7 dose-response
T4 construct: FLAG (N); expressed in transfected cells; host or cells: HEK-293T
Protocol: as §1, §4, §5

[5] = target: T5, S108T TAS2R16 (Homo sapiens, UniProt Q9NYV7, S108T); test: Ca2+ flux assay, mutation library clone S108T; assay type: cell-based; conditions: library screening concentrations
T5 construct: FLAG (N); expressed in transfected cells; host or cells: HEK-293T
T5 sequence (Q9NYV7 1-291 S108T): T1 sequence (Q9NYV7 1-291) with S108T
Protocol: as §1, §2

[6] = target: T6, S228T TAS2R16 (Homo sapiens, UniProt Q9NYV7, S228T); test: Ca2+ flux assay, mutation library clone S228T; assay type: cell-based; conditions: library screening concentrations
T6 construct: FLAG (N); expressed in transfected cells; host or cells: HEK-293T
T6 sequence (Q9NYV7 1-291 S228T): T1 sequence (Q9NYV7 1-291) with S228T
Protocol: as §1, §2

[7] = target: T7, C79A TAS2R16 (Homo sapiens, UniProt Q9NYV7, C79A); test: Ca2+ flux assay, C79A TAS2R16 variant; assay type: cell-based; conditions: Figure S3
T7 construct: FLAG (N); expressed in transfected cells; host or cells: HEK-293T
Protocol: as §1, §4

[8] = target: T8, W261G TAS2R16 (Homo sapiens, UniProt Q9NYV7, W261G); test: Ca2+ flux assay, mutation library clone W261G; assay type: cell-based; conditions: W261G TAS2R16, relative to wild-type, Fig. 5A
T8 construct: FLAG (N); expressed in transfected cells; host or cells: HEK-293T
Protocol: as §1, §4

[9] = test system: TAS2R16; conditions: cited from earlier work
[10] = test system: TAS2R38; conditions: cited from earlier work
[11] = test system: TAS2R43; conditions: cited from earlier work
[12] = test system: TAS2R16; conditions: disaccharides; cited from earlier work
[13] = Fig. 5b dose-response, wild-type TAS2R16, read-out: EC50 (WT)
[14] = Fig. 2d dose-response, wild-type TAS2R16, HEK-293T, read-out: EC50
[15] = Fig. 5b dose-response, W261A TAS2R16

T8 sequence (Q9NYV7 whole entry W261G): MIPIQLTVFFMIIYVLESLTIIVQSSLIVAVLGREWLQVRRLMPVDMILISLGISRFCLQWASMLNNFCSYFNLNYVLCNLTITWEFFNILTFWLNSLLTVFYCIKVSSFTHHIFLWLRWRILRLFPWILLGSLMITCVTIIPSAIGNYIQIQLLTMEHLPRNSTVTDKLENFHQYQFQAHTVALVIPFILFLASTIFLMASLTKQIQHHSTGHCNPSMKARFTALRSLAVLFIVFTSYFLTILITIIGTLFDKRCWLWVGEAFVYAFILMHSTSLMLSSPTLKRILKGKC
T4 sequence (Q9NYV7 whole entry N96A): as the sequence (Q9NYV7 whole entry W261G) above, with N96A, G261W counted along it
T3 sequence (Q9NYV7 whole entry N96T): as the sequence (Q9NYV7 whole entry W261G) above, with N96T, G261W counted along it
T7 sequence (Q9NYV7 whole entry C79A): as the sequence (Q9NYV7 whole entry W261G) above, with C79A, G261W counted along it

EC50 [1, 13]: 800 µM | EC50 ([1]; Fig. 6 comparative dose-response, wild-type TAS2R16, read-out: EC50 (WT)): 1200 µM | EC50 ([1]; Fig. 7 dose-response, wild-type TAS2R16, read-out: EC50 (WT)): 1100 µM | EC50 [1, 14]: 650 µM | lower EC50 than 4-NP-β-glucoside ([1]; wild-type TAS2R16, Fig. 6A): 4 fold | EC50 [2, 15]: 200 µM | decrease in EC50 with W261 mutation compared to WT [2]: ~ 4 fold | EC50 [3]: 200 µM | EC50 [4]: 1000 µM | Ca2+ flux signaling value [5]: 103 % of wild-type | Ca2+ flux signaling value [6]: 120 % of wild-type
Compound: O=[N+]([O-])c1ccc(O[C@@H]2O[C@H](CO)[C@@H](O)[C@H](O)[C@@H]2O)cc1 [4-NP-β-mannoside, 4-nitrophenyl-β-D-mannopyranoside]
activation of W261A variant [2]: strongly activated; also recorded: increased the activation

EC50 [1, 14]: 2500 µM | activation of TAS2R16 (agonist screen) [1]: moderate to robust activation | activation, % of wild-type activation [7]: 90 % of wild-type | Ca2+ flux signaling value [5]: 132 % of wild-type | Ca2+ flux signaling value [6]: 105 % of wild-type
Compound: CC(=O)N[C@H]1[C@H](Oc2ccccc2)O[C@H](CO)[C@@H](O)[C@@H]1O [β-glucosaminide, phenyl-N-acetyl-β-D-glucosaminide]

EC50 [1, 13]: 4900 µM | EC50 [2, 15]: 1800 µM | decrease in EC50 with W261 mutation compared to WT [2]: ~ 4 fold | activation of W261G variant [8]: higher than wild-type
Compound: O=[N+]([O-])c1ccc(O[C@@H]2O[C@H](CO)[C@@H](O)[C@H](O)[C@H]2O)cc1 [4-NP-β-glucoside, 4-nitrophenyl-β-D-glucopyranoside]
activation of W261A variant [2]: strongly activated; also recorded: higher than wild-type; also recorded: increased the activation

Compound: OC[C@H]1O[C@@H](Sc2ccccc2)[C@H](O)[C@@H](O)[C@@H]1O [phenyl-β-D-thioglucopyranoside]
activation of TAS2R16 (agonist screen) [1]: moderate to robust activation | activation of wild-type TAS2R16 ([1]; wild-type TAS2R16, HEK-293T): activation

Compound: C=CCC(=NOS(=O)(=O)O)S[C@@H]1O[C@H](CO)[C@@H](O)[C@H](O)[C@H]1O (stereo in doubt) [sinigrin]
activation of wild-type TAS2R16 ([1]; wild-type TAS2R16, HEK-293T): activation

EC50 [1, 14]: 2100 µM | Ca2+ flux signaling value [5]: 122 % of wild-type | Ca2+ flux signaling value [6]: 122 % of wild-type
Compound: CCCCCCO[C@@H]1O[C@H](CO)[C@@H](O)[C@H](O)[C@H]1O [hexyl-glucoside, hexyl-β-D-glucopyranoside]

Compound: CCCN(CCC)S(=O)(=O)c1ccc(C(=O)O)cc1 [probenecid]
action on TAS2R16 [9]: allosteric inhibitor | action on TAS2R38 [10]: allosteric inhibitor | action on TAS2R43 [11]: allosteric inhibitor

Compound: N#C[C@H](O[C@@H]1O[C@H](CO[C@@H]2O[C@H](CO)[C@@H](O)[C@H](O)[C@H]2O)[C@@H](O)[C@H](O)[C@H]1O)c1ccccc1 [amygdalin]
activation of TAS2R16 [12]: activation

EC50 (WT) ([1]; Fig. 5b dose-response, wild-type TAS2R16): high | activation of wild-type TAS2R16 ([1]; wild-type TAS2R16, HEK-293T): substantially weaker activation | EC50 (W261A) [2, 15]: high
Compound: OC[C@H]1O[C@@H](Oc2ccccc2)[C@H](O)[C@@H](O)[C@@H]1O [phenyl-β-glucoside, phenyl-β-D-glucoside]

Compound: gentiobiose
activation of TAS2R16 [12]: activation
